Source: ChEMBL document CHEMBL3272338, “Bis-basic-substituted polycyclic aromatic compounds. A new class of antiviral agents. 8. Bis-basic derivatives of carbazole, dibenzofuran, and dibenzothiophene” (1977)
Activity calls are given as the source filed them. No cut-off for these calls is given here.

tested on: Human alphaherpesvirus 1; experiment: (§1) In vivo antiviral activity against Herpesvirus hominis type 1 infected in hairless mouse assessed as suppression of ulcerated zoster-like lesions development administered topically at 2, 4 and 6 hrs after virus inoculation followed by continuous treatment daily for 4 days four times a day at 2 hrs interval measured on 8th day post-infection; type: functional, organism-based; conditions: not given

| Compound | inhibition |
| --- | --- |
| CN(C)CC(=O)c1ccc2sc3ccc(C(=O)CN(C)C)cc3c2c1.Cl | inactive |
| CN(C)CC(=O)c1ccc2oc3ccc(C(=O)CN(C)C)cc3c2c1.Cl | inactive |

tested on: Encephalomyocarditis virus; experiment: Antiviral activity against Encephalomyocarditis virus infected in CF-1 mouse assessed as host survival time ratio at 50 mg/kg, po administered via gavage at 28, 22, 2 hrs before and 2 hrs after virus inoculation; type: functional; conditions: not given

| Compound | Ratio |
| --- | --- |
| Cl.O=C(CCCN1CCC(Cc2ccccc2)CC1)c1ccc2oc3ccc(C(=O)CCCN4CCC(Cc5ccccc5)CC4)cc3c2c1 | 1.07 |
| CCN(CC)CCCOc1ccc2oc3ccc(OCCCN(CC)CC)cc3c2c1 | 0.98 |
| CN(C)CC(=O)c1ccc2sc3ccc(C(=O)CN(C)C)cc3c2c1.Cl | 1.75 |
| CC(C)N(CCOc1ccc2sc3ccc(OCCN(C(C)C)C(C)C)cc3c2c1)C(C)C.Cl | 1.18 |
| CCN(CC)CCOc1ccc2c(c1)c1cc(OCCN(CC)CC)ccc1n2CC.Cl | 0.87 |
| CN(C)CCCOc1ccc2oc3ccc(OCCCN(C)C)cc3c2c1.Cl | 0.92 |
| Cl.c1cc2oc3ccc(OCCN4CCCCC4)cc3c2cc1OCCN1CCCCC1 | 0.85 |
| O=C(CCCN1CCCCC1)c1ccc2sc3ccc(C(=O)CCCN4CCCCC4)cc3c2c1 | 1.16 |
| O=C(CCCN1CCOCC1)c1ccc2oc3ccc(C(=O)CCCN4CCOCC4)cc3c2c1 | 1.08 |
| CN(C)CC(=O)c1ccc2oc3ccc(C(=O)CN(C)C)cc3c2c1.Cl | 1.8 |

tested on: Human alphaherpesvirus 1; experiment: In vivo antiviral activity against Herpesvirus hominis type 1 infected in po dosed white mouse assessed as suppression of raised, blister-like lesions; type: functional, organism-based; conditions: not given

| Compound | inhibition |
| --- | --- |
| CN(C)CC(=O)c1ccc2sc3ccc(C(=O)CN(C)C)cc3c2c1.Cl | inactive |
| CN(C)CC(=O)c1ccc2oc3ccc(C(=O)CN(C)C)cc3c2c1.Cl | inactive |

tested on: Encephalomyocarditis virus; experiment: Antiviral activity against Encephalomyocarditis virus infected in CF-1 mouse assessed as host survival time ratio at 10 mg/kg, sc administered 28, 22, 2 hrs before and 2 hrs after virus inoculation; type: functional; conditions: route subcutaneous

| Compound | Ratio |
| --- | --- |
| Cl.O=C(CCCN1CCC(Cc2ccccc2)CC1)c1ccc2oc3ccc(C(=O)CCCN4CCC(Cc5ccccc5)CC4)cc3c2c1 | 1.27 |
| CCN(CC)CCCOc1ccc2oc3ccc(OCCCN(CC)CC)cc3c2c1 | 0.98 |
| CN(C)CC(=O)c1ccc2sc3ccc(C(=O)CN(C)C)cc3c2c1.Cl | 1.1 |
| CC(C)N(CCOc1ccc2sc3ccc(OCCN(C(C)C)C(C)C)cc3c2c1)C(C)C.Cl | 1.24 |
| CCN(CC)CCOc1ccc2c(c1)c1cc(OCCN(CC)CC)ccc1n2CC.Cl | 1.05 |
| CN(C)CCCOc1ccc2oc3ccc(OCCCN(C)C)cc3c2c1.Cl | 0.92 |
| Cl.c1cc2oc3ccc(OCCN4CCCCC4)cc3c2cc1OCCN1CCCCC1 | 0.94 |
| O=C(CCCN1CCCCC1)c1ccc2sc3ccc(C(=O)CCCN4CCCCC4)cc3c2c1 | 1.1 |
| O=C(CCCN1CCOCC1)c1ccc2oc3ccc(C(=O)CCCN4CCOCC4)cc3c2c1 | 1 |
| CN(C)CC(=O)c1ccc2oc3ccc(C(=O)CN(C)C)cc3c2c1.Cl | 1.13 |

tested on: Vaccinia virus; experiment: Antiviral activity against Vaccinia virus infected in mouse; type: functional, organism-based; conditions: Orthopoxvirus vaccinia

| Compound | Activity |
| --- | --- |
| CN(C)CC(=O)c1ccc2sc3ccc(C(=O)CN(C)C)cc3c2c1.Cl | Active |
| CN(C)CC(=O)c1ccc2oc3ccc(C(=O)CN(C)C)cc3c2c1.Cl | Active |

tested on: Human alphaherpesvirus 1; experiment: In vitro antiviral activity against Herpesvirus hominis type 1 infected in African green monkey Vero cells assessed as log reduction of virus titer by cytopathologic assay (reference value: 5); type: functional; conditions: not given

| Compound | log(activity) |
| --- | --- |
| CN(C)CC(=O)c1ccc2sc3ccc(C(=O)CN(C)C)cc3c2c1.Cl | 2.5 |
| CN(C)CC(=O)c1ccc2oc3ccc(C(=O)CN(C)C)cc3c2c1.Cl | 2.5 |

tested on: Semliki Forest virus; experiment: Antiviral activity against Semliki forest virus infected in mouse; type: functional, organism-based; conditions: not given

| Compound | Activity |
| --- | --- |
| CN(C)CC(=O)c1ccc2sc3ccc(C(=O)CN(C)C)cc3c2c1.Cl | Active |
| CN(C)CC(=O)c1ccc2oc3ccc(C(=O)CN(C)C)cc3c2c1.Cl | Active |

tested on: Mus musculus; experiment: Induction of interferon induction in po dosed mouse serum; type: functional, organism-based; conditions: not given

| Compound | Activity |
| --- | --- |
| CN(C)CC(=O)c1ccc2sc3ccc(C(=O)CN(C)C)cc3c2c1.Cl | Active |
| CN(C)CC(=O)c1ccc2oc3ccc(C(=O)CN(C)C)cc3c2c1.Cl | Active |

tested on: Encephalomyocarditis virus; experiment: Antiviral activity against Encephalomyocarditis virus infected in CF-1 mouse assessed as host survival time ratio at 250 mg/kg, sc administered 28, 22, 2 hrs before and 2 hrs after virus inoculation; type: functional; conditions: route subcutaneous

| Compound | Ratio |
| --- | --- |
| CN(C)CC(=O)c1ccc2sc3ccc(C(=O)CN(C)C)cc3c2c1.Cl | 2.29 |
| CC(C)N(CCOc1ccc2sc3ccc(OCCN(C(C)C)C(C)C)cc3c2c1)C(C)C.Cl | 1.2 |
| CCN(CC)CCOc1ccc2c(c1)c1cc(OCCN(CC)CC)ccc1n2CC.Cl | 0.85 |
| CN(C)CCCOc1ccc2oc3ccc(OCCCN(C)C)cc3c2c1.Cl | 0.66 |
| Cl.c1cc2oc3ccc(OCCN4CCCCC4)cc3c2cc1OCCN1CCCCC1 | 1.02 |
| O=C(CCCN1CCCCC1)c1ccc2sc3ccc(C(=O)CCCN4CCCCC4)cc3c2c1 | 0.61 |
| O=C(CCCN1CCOCC1)c1ccc2oc3ccc(C(=O)CCCN4CCOCC4)cc3c2c1 | 1.96 |
| CN(C)CC(=O)c1ccc2oc3ccc(C(=O)CN(C)C)cc3c2c1.Cl | 2 |

tested on: Mus musculus; experiment: Induction of interferon induction in sc dosed mouse serum; type: functional, organism-based; conditions: not given

| Compound | Activity |
| --- | --- |
| CN(C)CC(=O)c1ccc2sc3ccc(C(=O)CN(C)C)cc3c2c1.Cl | Active |
| CN(C)CC(=O)c1ccc2oc3ccc(C(=O)CN(C)C)cc3c2c1.Cl | Active |

tested on: Encephalomyocarditis virus; experiment: Antiviral activity against Encephalomyocarditis virus infected in CF-1 mouse assessed as host survival time ratio at 50 mg/kg, sc administered 28, 22, 2 hrs before and 2 hrs after virus inoculation; type: functional; conditions: route subcutaneous

| Compound | Ratio |
| --- | --- |
| Cl.O=C(CCCN1CCC(Cc2ccccc2)CC1)c1ccc2oc3ccc(C(=O)CCCN4CCC(Cc5ccccc5)CC4)cc3c2c1 | 1.7 |
| CCN(CC)CCCOc1ccc2oc3ccc(OCCCN(CC)CC)cc3c2c1 | 0.88 |
| CN(C)CC(=O)c1ccc2sc3ccc(C(=O)CN(C)C)cc3c2c1.Cl | 2.29 |
| CC(C)N(CCOc1ccc2sc3ccc(OCCN(C(C)C)C(C)C)cc3c2c1)C(C)C.Cl | 1.3 |
| CCN(CC)CCOc1ccc2c(c1)c1cc(OCCN(CC)CC)ccc1n2CC.Cl | 1.13 |
| CN(C)CCCOc1ccc2oc3ccc(OCCCN(C)C)cc3c2c1.Cl | 1.24 |
| Cl.c1cc2oc3ccc(OCCN4CCCCC4)cc3c2cc1OCCN1CCCCC1 | 1.25 |
| O=C(CCCN1CCCCC1)c1ccc2sc3ccc(C(=O)CCCN4CCCCC4)cc3c2c1 | 1.9 |
| O=C(CCCN1CCOCC1)c1ccc2oc3ccc(C(=O)CCCN4CCOCC4)cc3c2c1 | 1.39 |
| CN(C)CC(=O)c1ccc2oc3ccc(C(=O)CN(C)C)cc3c2c1.Cl | 1.64 |

tested on: Venezuelan equine encephalitis virus; experiment: Antiviral activity against Venezuelan equine encephalitis virus infected in po dosed monkey assessed as reduction in viremia; type: functional, organism-based; conditions: not given

| Compound | inhibition |
| --- | --- |
| CN(C)CC(=O)c1ccc2sc3ccc(C(=O)CN(C)C)cc3c2c1.Cl | Active |
| CN(C)CC(=O)c1ccc2oc3ccc(C(=O)CN(C)C)cc3c2c1.Cl | Active |

tested on: Influenza A virus; experiment: Antiviral activity against Influenza A virus A2 Jap/305 infected in mouse; type: functional, organism-based; conditions: not given

| Compound | Activity |
| --- | --- |
| CN(C)CC(=O)c1ccc2sc3ccc(C(=O)CN(C)C)cc3c2c1.Cl | Active |

tested on: Human alphaherpesvirus 1; experiment: as §1, with “decrease in lesion score” for “suppression of ulcerated zoster-like lesions development”; type: functional, organism-based; conditions: not given

| Compound | inhibition |
| --- | --- |
| CN(C)CC(=O)c1ccc2sc3ccc(C(=O)CN(C)C)cc3c2c1.Cl | Active |
| CN(C)CC(=O)c1ccc2oc3ccc(C(=O)CN(C)C)cc3c2c1.Cl | Active |

tested on: Influenza A virus; experiment: Antiviral activity against Influenza A virus A0 (Pr8) infected in mouse; type: functional, organism-based; conditions: not given

| Compound | Activity |
| --- | --- |
| CN(C)CC(=O)c1ccc2sc3ccc(C(=O)CN(C)C)cc3c2c1.Cl | Active |

tested on: Encephalomyocarditis virus; experiment: Antiviral activity against Encephalomyocarditis virus infected in CF-1 mouse assessed as host survival time ratio at 250 mg/kg, po administered via gavage as single dose at 22 to 28 hrs before virus inoculation; type: functional; conditions: not given

| Compound | Ratio |
| --- | --- |
| Cl.O=C(CCCN1CCC(Cc2ccccc2)CC1)c1ccc2oc3ccc(C(=O)CCCN4CCC(Cc5ccccc5)CC4)cc3c2c1 | 0.98 |
| CCN(CC)CCCOc1ccc2oc3ccc(OCCCN(CC)CC)cc3c2c1 | 0.92 |
| CN(C)CC(=O)c1ccc2sc3ccc(C(=O)CN(C)C)cc3c2c1.Cl | 2.29 |
| CC(C)N(CCOc1ccc2sc3ccc(OCCN(C(C)C)C(C)C)cc3c2c1)C(C)C.Cl | 1 |
| CCN(CC)CCOc1ccc2c(c1)c1cc(OCCN(CC)CC)ccc1n2CC.Cl | 0.92 |
| CN(C)CCCOc1ccc2oc3ccc(OCCCN(C)C)cc3c2c1.Cl | 0.88 |
| Cl.c1cc2oc3ccc(OCCN4CCCCC4)cc3c2cc1OCCN1CCCCC1 | 1.04 |
| O=C(CCCN1CCCCC1)c1ccc2sc3ccc(C(=O)CCCN4CCCCC4)cc3c2c1 | 1.22 |
| O=C(CCCN1CCOCC1)c1ccc2oc3ccc(C(=O)CCCN4CCOCC4)cc3c2c1 | 1.08 |
| CN(C)CC(=O)c1ccc2oc3ccc(C(=O)CN(C)C)cc3c2c1.Cl | 2.2 |

tested on: Encephalomyocarditis virus; experiment: Antiviral activity against Encephalomyocarditis virus infected in CF-1 mouse assessed as host survival time ratio at 250 mg/kg, sc administered as single dose at 22 hrs before virus inoculation; type: functional; conditions: route subcutaneous

| Compound | Ratio |
| --- | --- |
| Cl.O=C(CCCN1CCC(Cc2ccccc2)CC1)c1ccc2oc3ccc(C(=O)CCCN4CCC(Cc5ccccc5)CC4)cc3c2c1 | 1.82 |
| CCN(CC)CCCOc1ccc2oc3ccc(OCCCN(CC)CC)cc3c2c1 | 1.47 |
